# Test results as given in a melting point compilation (Tetko et al.; mined from patent text by program, amines drawn as free bases though some values may be those of a salt).
row,Compound,melting point [°C]
1,Cc1c(C(=O)c2ccc(F)cc2)cccc1[N+](=O)[O-],64
2,CC(=O)Nc1cc(I)ccc1C(=O)O,229 to 232
3,O=C1CNC(=O)N1c1ccncc1,232 to 234
4,N#Cc1ccc(Oc2ccccc2[N+](=O)[O-])cc1C#N,127
5,N#Cc1c(Cl)ccc([N+](=O)[O-])c1N,181 to 184
6,CC(C)SC1NC(=O)C1NC(=O)COc1ccccc1 (stereo unspecified),128 to 130
7,CC(C)(CCCC(=O)O)c1ccc(O)cc1,94 to 96
8,CCOC(=O)N1CCc2[nH]cc3c(=O)n(-c4ccc(Cl)cc4)nc-3c2C1,357 to 359
9,CS(=O)(=O)Nc1cccc(Nc2nc(Oc3ccc(F)cc3)c3nc[nH]c3n2)c1,136 to 139
10,CNS(=O)(=O)c1cc(S(=O)(=O)Cl)c(Cl)cc1N,153 to 155
11,CC(C)(C)ONc1ccccc1,67 to 69
12,Cc1cn(CC#CCN2CCCC2=O)cn1,134 to 137
13,CC(=Cc1ccc(-c2ccccc2)s1)c1ccccc1,115 to 125
14,O=c1c(-c2ccccc2)c(CNc2ncnc3[nH]cnc23)oc2ccc(Br)cc12,151 to 154
15,N#Cc1cc(N2C(=O)CC(C(F)(F)F)CC2=O)c(F)cc1Cl,210 to 212
16,Nc1nc(C(F)(F)F)cc(=O)n1N,215 to 218
17,Cc1ccc(CN2C(=O)C(C)Oc3c(C(=O)NC4CN5CCC4CC5)cc(Cl)cc32)cc1 (stereo unspecified),156
18,CC(C)n1nc(-c2cnc(NCc3ccccn3)nc2-c2ccccc2)ccc1=O,143 to 144
19,CN1C(=O)C2(COc3cc4c(cc32)OCCO4)c2c(C(=O)Nc3ccc(F)cc3)cccc21 (stereo unspecified),> 250
20,CC(=O)c1ccc(-c2ccc(OCc3ccc4ccccc4n3)cc2)c([N+](=O)[O-])c1,160 to 162
21,CCOC(=O)c1cn(-c2ccc(F)cc2F)c2nc(N3CCC(N)C3)c(F)cc2c1=O (stereo unspecified),200 to 202

row,Compound,melting point [°C]
1,CC(=O)NCc1cccc(Nc2nccc(-c3sc(NCc4ccccc4)nc3C)n2)c1,181 to 183
2,CCCCCOC(=O)Cc1sc(F)c(N=c2sc(=O)n3n2CCCC3)c1Cl,39 to 41
3,Clc1cccc(Oc2ncccc2C2=NC(c3ccccc3)CO2)c1 (stereo unspecified),78 to 80
4,N=C(NO)c1ccc(-c2cccc(-c3nc4cc(C(=N)NO)ccc4[nH]3)c2)cc1,317 to 319
5,Cc1ccnc(C(=O)n2cc(CC(=O)N(C)C)c3ccc(Cl)cc32)c1,208
6,CC1CN(C)CC=C1C(=O)N1c2ccccc2NC(=O)c2ccccc21 (stereo unspecified),223 to 224
7,CN(Cc1nnc2n1-c1ccc(Cl)cc1C(c1ccccc1)=NC2)CC1CC1,171 to 176
8,CCCCCCCCCCCCCC(=O)O[C@H](CCCCCCCCCCC)CC(=O)O,28 to 29
9,COC(=O)C(CCSC)NC(=O)c1ccc(NC(=O)Cc2cn(S(=O)(=O)c3ccc(C)cc3)cn2)cc1-c1ccccc1 (stereo unspecified),202 to 203
10,CN1CCCc2ccc(O)cc21,97 to 98
11,COCCOc1cc2ncc(C#N)c(NC3=CC(=O)C(C)=CC3=O)c2cc1OC,174 to 177
12,Cc1cc(Nc2nccc(-c3sc(N)nc3C)n2)ccc1N1CCOCC1,256 to 257
13,N#CC1=C(c2ccco2)Nc2n[nH]cc2C1c1cccc2nonc12 (stereo unspecified),237
14,COc1ccc(CS[C@H]2C[C@@H](C(N)=O)N(CCF)C2)cc1,122 to 123
15,CCOc1cc2c(Cl)c(C#N)cnc2cc1NC(C)=O,202 to 204
16,CN(C(=O)c1ccc2nonc2c1)C1CCOC(=O)C1 (stereo unspecified),169 to 171
17,CC(C)(C)C1=NN(c2ccc(C(=O)O)cc2)C(c2ccc(Br)cc2)C1 (stereo unspecified),222
18,CC(C)C1C(=O)Nc2ccc(OCC3CO3)cc21 (stereo unspecified),122 to 125
19,COc1cccc(-c2cn3cc(C(=O)NCCCCCCC(=O)NO)sc3n2)c1,209 to 211
20,OP(O)C(NC(c1ccccc1)c1ccccc1)c1ccc2ccccc2c1 (stereo unspecified),205 to 207
